Data set [1] relates to HIV-1 RT-associated RNase H activity, V108A RT. Kind of data set: RNase H activity assay, V108A RT. The class given is biochemical, HIV-1 group M subtype B. To be noted: V108A RT. As for the experimental part:
HIV RT-associated RNase H activity was measured as described in 100 μL reaction volume containing 50 mM Tris-HCl buffer pH 7.8, 6 mM MgCl2, 1 mM dithiothreitol (DTT), 80 mM KCl, 0.25 μM hybrid RNA/DNA 5'-GAUCUGAGCCUGGGAGCU-Fluorescin-3' (HPLC, dry, QC: Mass Check) (available from Metabion) 5'-Dabcyl-AGCTCCCAGGCTCAGATC-3'(HPLC, dry, QC: Mass Check), increasing concentrations of inhibitors, whose dilution were made in water, and different amount of enzymes according to a linear range of dose-response curve: 20 ng of WT RT; 60 ng K103N RT; 37.5 ng V106A RT; 75 ng V108A RT; 5 ng Y181C RT; 50 ng Y188A RT; 30 ng Y188L RT; 100 ng E224A RT; 37.5 ng P225A RT; 20 ng P226A RT; 18 ng F227A RT; 30 ng L228A RT; 30 ng W229A RT; 10 ng M230A RT; 30 ng G231A RT; 62.5 ng N474A RT; 1 μg Y501A RT; 100 ng A502F RT; 37.5 ng A508V RT; 38 ng HIV-1 group O RT. The reaction mixture was incubated for 1 h at 37°C, stopped by addition of EDTA and products were measured with a multilabel counter plate reader Victor 3 (Perkin Elmer model 1420–051) equipped with filters for 490/528 nm (excitation/emission wavelength)

In data set [2] the target is T1, HIV-1 RT-associated RDDP activity, Y188L RT (Human immunodeficiency virus type 1 group M subtype B, UniProt P04585, Y775L).
T1 construct: The 1:1 ration between the p66/p51 subunits was also verified; made in house; host or cells: E. coli M15
As to the kind of experiment: RDDP activity assay, Y188L RT. The class given is biochemical, HIV-1 group M subtype B.

Data set [3] deals with HIV-1 RT-associated RDDP activity, HIV-1 group O RT (Human immunodeficiency virus type 1 group O, UniProt Q79666). Kind of data set: RDDP activity assay, HIV-1 group O RT. The class given is biochemical. To be noted: read-out: IC50 RDDP. The text has this: Recombinant HIV-1 group O RT was expressed and purified as previously described. It was obtained as a heterodimer composed of subunits of 66 and 51 kDa, with a polyhistidine tag at the C-terminus of p66. For this purpose, the RT p66 subunit encoded within a p66RTB expression vector was co-expressed with the HIV-1 protease in E. coli XL-1 Blue, and the obtained heterodimers were then purified by ionic exchange followed by chromatography on Ni2+-nitriloacetic acid agarose. The enzyme was quantified by active site titration before biochemical studies.
RNA-dependent DNA polymerase (RDDP) activity was measured as described in 25 μL volume containing 60 mM Tris-HCl buffer pH 8.1, 8 mM MgCl2, 60 mM KCl, 13 mM DTT, 2.5 μM poly(A)-oligo(dT), 100 μM dTTP, increasing concentrations of inhibitors, whose dilution were made in water, and different amounts of enzymes according to a linear range of dose-response curve: 6 ng wt RT; 30 ng K103N RT; 12 ng V106ART; 19 ng V108A RT; 1.51.5 ng Y181C RT; 45 ng Y188A RT; 15 ng Y188L RT; 30 ng E224A RT; 15 ng P225A RT; 18 ng P226A RT; 23 ng F227A RT; 15 ng L228A RT; 30 ng W229A RT; 30 ng M230A RT; 15 ng G231A RT; 15 ng N474A RT; 15 ng Y501A RT; 15 ng A502F RT; 19 ng A508V RT; 38 ng HIV-1 group O RT. After enzyme addition, the reaction mixture was incubated for 30 min at 37°C and the stopped by addition of EDTA. […]

Data set [4] addresses T2, HIV-1 RT-associated RDDP activity, A508V RT (Human immunodeficiency virus type 1 group M subtype B, UniProt P04585, A1095V).
T2 construct: The 1:1 ration between the p66/p51 subunits was also verified; made in house; host or cells: E. coli M15
Kind of data set: biochemical. On the set-up: species or system HIV-1 group M subtype B.

Data set [5] has as its target T3, HIV-1 RT RNA-dependent DNA polymerase activity (Human immunodeficiency virus type 1 group M subtype B, UniProt P04585).
T3 construct: The 1:1 ration between the p66/p51 subunits was also verified; made in house; host or cells: E. coli M15
As to the kind of experiment: Yonetani-Theorell analysis of RMNC6 and EFV on RDDP function. It is filed as biochemical. As for the experimental part:
RNA-dependent DNA polymerase (RDDP) activity was measured as described in 25 μL volume containing 60 mM Tris-HCl buffer pH 8.1, 8 mM MgCl2, 60 mM KCl, 13 mM DTT, 2.5 μM poly(A)-oligo(dT), 100 μM dTTP, increasing concentrations of inhibitors, whose dilution were made in water, and different amounts of enzymes according to a linear range of dose-response curve: 6 ng wt RT; 30 ng K103N RT; 12 ng V106ART; 19 ng V108A RT; 1.51.5 ng Y181C RT; 45 ng Y188A RT; 15 ng Y188L RT; 30 ng E224A RT; 15 ng P225A RT; 18 ng P226A RT; 23 ng F227A RT; 15 ng L228A RT; 30 ng W229A RT; 30 ng M230A RT; 15 ng G231A RT; 15 ng N474A RT; 15 ng Y501A RT; 15 ng A502F RT; 19 ng A508V RT; 38 ng HIV-1 group O RT. After enzyme addition, the reaction mixture was incubated for 30 min at 37°C and the stopped by addition of EDTA. Reaction products were detected by picogreen addition and measured with a multilabel counter plate reader Victor 3 (Perkin Elmer model 1420–051) equipped with filters for 502/523 nm (excitation/emission wavelength). The Yonetani-Theorell analysis was performed as described previously.

A short description of data set [6]: UV spectra in the absence and presence of magnesium (chelating potential). The conditions noted are these: in the presence of 6 mM MgCl2. It is filed as physicochemical. The source says:
Since the mode of action of previously identified dual RT inhibitors was not determined, we decided to investigate the mechanism of RT inhibition by RMNC6 in comparison with available RNase H inhibitors and NNRTIs. […] RNase H inhibitors such as vynologous ureas (VUs) are known to destabilize the RT heterodimer by binding to an allosteric pocket in the RNase H domain at the interface between p66 and p51 subunits.

Data set [7] has as its system HIV-1 RT-associated RDDP activity, F227A RT. As to the kind of experiment: biochemical. On the set-up: species or system HIV-1 group M subtype B. The conditions noted are these: F227A RT.
For data set [8], the target named is T4, HIV-1 RT-associated RDDP activity, F227A RT (Human immunodeficiency virus type 1 group M subtype B, UniProt P04585, F814A).
T4 construct: The 1:1 ration between the p66/p51 subunits was also verified; made in house; host or cells: E. coli M15
Kind of data set: biochemical. On the set-up: species or system HIV-1 group M subtype B.

For data set [9], the target named is T5, HIV-1 RT-associated RDDP activity, L228A RT (Human immunodeficiency virus type 1 group M subtype B, UniProt P04585, L815A).
T5 construct: The 1:1 ration between the p66/p51 subunits was also verified; made in house; host or cells: E. coli M15
As to the kind of experiment: biochemical. On the set-up: species or system HIV-1 group M subtype B.

The subject of data set [10] is HIV-1 RT-associated RDDP activity, L228A RT. As to the kind of experiment: biochemical. The conditions noted are these: L228A RT. On the set-up: species or system HIV-1 group M subtype B.
The target of data set [11] is T6, HIV-1 RT-associated RDDP activity, W229A RT (Human immunodeficiency virus type 1 group M subtype B, UniProt P04585, W816A).
T6 construct: The 1:1 ration between the p66/p51 subunits was also verified; made in house; host or cells: E. coli M15
As to the kind of experiment: biochemical. On the set-up: species or system HIV-1 group M subtype B.

The target in data set [12] is T7, HIV-1 RT-associated RDDP activity, V108A RT (Human immunodeficiency virus type 1 group M subtype B, UniProt P04585, V695A).
T7 construct: The 1:1 ration between the p66/p51 subunits was also verified; made in house; host or cells: E. coli M15
As to the kind of experiment: biochemical. On the set-up: species or system HIV-1 group M subtype B.

In the case of `CC(C)c1ccc(O)c(=O)c(O)c1` [BTP, β-thujaplicinol, reference compound], the “Fold of increase of RNase H IC50 with respect to wt RT” value in [1] came to 0.9.
For `N#Cc1ccc(-c2csc(NN=C3C(=O)Nc4ccccc43)n2)cc1` [RMNC6, (Z)-4-(2-(2-(2-oxoindolin-3-ylidene)hydrazinyl)thiazol-4-yl)benzonitrile], the IC50 in data set [2] came to 16.5 ± 3.7 µM; in data set [3], 20.1 ± 7.4 µM; in data set [4], 19.3 ± 2.8 µM; in [8] it was 15.2 ± 0.9 µM; in data set [9], 13.1 ± 1.9 µM; in [11], 15.4 ± 2.8 µM. This compound yielded an IC50 in data set [12] of 33 ± 5.2 µM. Moreover, the “Fold of increase of RDDP IC50 with respect to wt RT” value in data set [4] (A508V RT) stood at 2.0; in data set [7], 1.5; in [10], 1.3; in data set [11] (W229A RT), 1.6; in data set [12] (V108A RT), 3.4. Moreover, in data set [5] (RMNC6 combined with EFV (4, 8, 16 nM) on RDDP function), the “Mutual exclusivity of inhibition (Yonetani-Theorell, words)” value was “not mutually exclusive”. Also, in [5] (combined effects of RMNC6 and EFV on RDDP function), the “Interaction constant α (Yonetani-Theorell)” value was 1.2. For the same compound, the “Shift of maximum of absorbance (UV spectra)” value in [6] was “did not shift”.

In general, IC50 refers to the concentration that inhibits the measured activity by half.

The values are drawn from publication PMC4723341, “Ribonuclease H/DNA Polymerase HIV-1 Reverse Transcriptase Dual Inhibitor: Mechanistic Studies on the Allosteric Mode of Action of Isatin-Based Compound RMNC6” (PLoS ONE, 2016).
